# Measured values: article PMC5920042, “KH176 Safeguards Mitochondrial Diseased Cells from Redox Stress-Induced Cell Death by Interacting with the Thioredoxin System/Peroxiredoxin Enzyme Machinery” (Scientific Reports, 2018)
# Where “and” joins values, the source holds several entries; their conditions need not be identical. Equal entries are not always repeated. Marks after values point to notes of the source that are not given here.
# Experiments:
# [1] = tested on: P4 cell line; assay: Radical-Scavenging Capacity assay (CM-H2DCFDA, H2O2 or KO2); assay type: cell-based, human; conditions: P4 cells, 100 µM H2O2 or 1 mM KO2 (text: KOH), 3 µM compound
# Method: Cells were seeded at a density of 4 × 10^3 cells/well into 96-wells black plates. After 24 h the cells were loaded with 5 µM CM-H2DCFDA in M199 without phenol red for 20 min. The dye excess was washed with M199 without phenol red and immediately after, cells were treated acutely with different concentrations of the test compounds in M199 without phenol red. To generate radicals, 100 µM H2O2 or 1 mM KO2 were injected to the compound-treated cells and CM-DCF fluorescence was measured every 2 min for 70 cycles on a scanning microplate reader (BMG FLUOstar Omega; Ex. 480 nm, Em. 520 nm). The area under the generated curves was calculated using the Origin 6.1 software (OriginLab).
# [2] = tested on: P4 cell line; assay: Redox Stress Survival assay (BSO-induced cell death, Calcein AM viability); assay type: cell-based, human
# Method: Cells were seeded at a density of 4 × 10^3 cells/well into 96-wells black plates and incubated for 24 h. To induce redox stress, semi-logarithmic dilutions of buthionine sulphoximine (BSO, #B2515, Sigma Aldrich) up to 100 µM were added to the cells in culture medium and incubated for 24 h. Cell viability was assessed by quantification of cellular conversion of Calcein AM into fluorescent Calcein. Briefly, after having discarded the BSO containing medium, cells were washed once with M199 without phenol red and loaded with 2 µM Calcein AM (#65-0853-39, Affimetrix eBioscience) in M199 without phenol red for 25 min. At the end of the incubation period, the excess of the dye was washed with M199 without phenol red and Calcein fluorescence was measured with a scanning microplate reader (BMG FLUOstar Omega; Ex. 480 nm, Em. 520 nm). For compound screening and target identification measurements cells were treated with 200 µM BSO alone or in co-incubation with semi-logarithmic dilutions of the test compound. Additionally, where indicated, increasing doses of Auranofin (AFN, #BML-EI206-0100, Enzo) or Aurothioglucose (ATG, #A0606, Sigma Aldrich) were co-incubated with BSO and the test compound. In all cases, cell viability was assessed 24 h after the treatment.
# [3] = tested on: primary human skin fibroblasts; assay: CumOOH induced lipid peroxidation (bodipy 581/591 C11); assay type: cell-based; conditions: 30 µM cumOOH
# Method: The cells were seeded at a density of 3 × 10^3 cells/well into 96-wells black plates. After 24 h, the cells were coincubated with 500 nM bodipy 581/591 C11 (#D3861, Thermo Fisher) and different amounts of KH compound in M199 without phenol red. This medium was used in all subsequent washes and incubations. After 30 min. incubation the cells were washed twice and subsequently incubated with 30 μM cumene hydroperoxide (cumOOH). For background subtractions cells with the dye but without cumOOH were used. After 30 minutes incubation and two washes oxidized bodipy 581/591 C11 was quantified on an automated bioimager (BD Pathway 855), by using a 20x objective and Ex. 488/10 nm, Em. FURA/FITC. Total cellular fluorescence per well was normalized on the number of cellular pixels/well and normalized on the incubation with probe and cumOOH but without compound (vehicle set as 100%). Experiments were performed at least three times with 3 wells per experiment.
# [4] = tested on: primary human skin fibroblasts; assay: Mitochondrial superoxide detection by mitoSOX oxidation; assay type: cell-based; conditions: 30 min preincubation, no external stimulus; read-out: IC50 mitochondrial superoxide levels (mitoSOX)
# Method: The cells were seeded at a density of 3 × 10^3 cells/well into 96-wells black plates. After 24 h, the cells were incubated with different amounts of KH176(m) in M199 without phenol red. This medium was used in all subsequent washes and incubations. After 30 min. incubation the cells were washed and subsequently incubated 1 µM mitoSOX (#M36008, ThermoFisher). […] After 10 min incubation the cells were washed twice and incubated for 30 min. to allow the accumulation of oxidized mitoSOX in the mitochondria. […] Wells with cells but without mitoSOX were used for background correction. Experiments were performed at least three times with 3 wells per experiment.
# [5] = Single dose pharmacokinetics and bioavailability study; assay type: in vivo, male C57BL/6 mice; conditions: mouse
# Method: (§1) Pharmacokinetics and toxicokinetics measurements were performed by the commercial Contract Research Organizations Sai Life Sciences and WuXi AppTec, respectively, according to their standard protocols and in accordance with relevant guidelines and regulations. C57 BL/6 mice, Sprague Dawley rats, and Beagle dogs were studied.
# [6] = 28-day repeat oral dose toxicity study, toxicokinetics; assay type: in vivo, Sprague Dawley rats; conditions: rat
# Method: as §1
# [7] = KH176 25 mg/kg/dose BID oral, F, Day 1, plasma
# [8] = KH176 25 mg/kg/dose BID oral, F, Day 28, plasma
# [9] = KH176 25 mg/kg/dose BID oral, M, Day 1, plasma
# [10] = KH176 25 mg/kg/dose BID oral, M, Day 28, plasma
# [11] = KH176 75 mg/kg/dose BID oral, F, Day 1, plasma
# [12] = KH176 75 mg/kg/dose BID oral, F, Day 28, plasma
# [13] = KH176 75 mg/kg/dose BID oral, M, Day 1, plasma
# [14] = KH176 75 mg/kg/dose BID oral, M, Day 28, plasma
# [15] = KH176 250 mg/kg/dose BID oral, F, Day 1, plasma
# [16] = KH176 250 mg/kg/dose BID oral, F, Day 28, plasma
# [17] = KH176 250 mg/kg/dose BID oral, M, Day 1, plasma
# [18] = KH176 250 mg/kg/dose BID oral, M, Day 28, plasma
structure (smiles),measurement,setting,value
CC1=C(C)C(=O)C(CC[C@](C)(O)C(=O)N[C@@H]2CCCNC2)=C(C)C1=O [KH176m],Reduction of H2O2-induced radicals and O2.- (CM-H2DCFDA oxidation),[1],able to reduce the levels of both radicals
same,EC50,"[2]; P4 cells, 200 µM BSO, 24 h",38 nM and 38.7 nM
same,Viability of patient cells under BSO,"[2]; increasing BSO 24 h, 1 µM compound",fully protected
same,"Potency (IC50) of KH176m relative to KH176, lipid peroxidation",[3],about 1000 fold
same,IC50,[3]; bodipy 581/591 C11,71 nM
same,IC50,[4],1400 nM
same,"Brain to Plasma ratio, range (1–8 hours)",[5]; KH176 2 mg/kg i.v.,b.d.
same,"Heart to Plasma ratio, range (1–8 hours)",[5]; KH176 2 mg/kg i.v.,6.1–11.6
same,"Liver to Plasma ratio, range (1–8 hours)",[5]; KH176 2 mg/kg i.v.,29.0–57.1
same,"Skeletal muscle to Plasma ratio, range (1–8 hours)",[5]; KH176 2 mg/kg i.v.,8.2–20.5
same,AUCINF,"[5]; KH176 2 mg/kg i.v., plasma",146.9 ng·h/mL
same,AUClast,"[5]; KH176 2 mg/kg i.v., plasma",140.0 ng·h/mL
same,T1/2,"[5]; KH176 2 mg/kg i.v., plasma",0.5 h
same,C0 (i.v.),"[5]; KH176 2 mg/kg i.v., plasma, back extrapolated",359.3 ng/mL
same,"Brain to Plasma ratio, range (1–8 hours)",[5]; KH176 10 mg/kg p.o.,0.1–19.6
same,"Heart to Plasma ratio, range (1–8 hours)",[5]; KH176 10 mg/kg p.o.,2.1–14.6
same,"Liver to Plasma ratio, range (1–8 hours)",[5]; KH176 10 mg/kg p.o.,12.8–94.1
same,AUCINF,"[5]; KH176 10 mg/kg p.o., plasma",1260.8 ng·h/mL
same,AUClast,"[5]; KH176 10 mg/kg p.o., plasma",1225.2 ng·h/mL
same,Cmax (p.o.),"[5]; KH176 10 mg/kg p.o., plasma",1061.8 ng/mL
same,Tmax,"[5]; KH176 10 mg/kg p.o., plasma",0.25 h
same,"Skeletal muscle to Plasma ratio, range at 1 hour","[5]; KH176 10 mg/kg p.o., no concentrations detected at 8 hours",4.4–33.8^d
same,AUC0–24 h Ratio KH176m/KH176,"[6]; KH176 25 mg/kg/dose BID oral, F, Day 1",0.091
same,AUC0–24 h,[6]; [7],1140 ng·h/mL
same,Cmax,[6]; [7],85.9 ng/mL
same,T1/2,[6]; [7],4.5 h
same,AUC0–24 h Ratio KH176m/KH176,"[6]; KH176 25 mg/kg/dose BID oral, F, Day 28",0.074
same,AUC0–24 h,[6]; [8],1410 ng·h/mL
same,Cmax,[6]; [8],123 ng/mL
same,T1/2,[6]; [8],6.2 h
same,AUC0–24 h Ratio KH176m/KH176,"[6]; KH176 25 mg/kg/dose BID oral, M, Day 1",0.075
same,AUC0–24 h,[6]; [9],792 ng·h/mL
same,Cmax,[6]; [9],92.7 ng/mL
same,T1/2,[6]; [9],2.3 h
same,AUC0–24 h Ratio KH176m/KH176,"[6]; KH176 25 mg/kg/dose BID oral, M, Day 28",0.064
same,AUC0–24 h,[6]; [10],993 ng·h/mL
same,Cmax,[6]; [10],126 ng/mL
same,T1/2,[6]; [10],13.3 h
same,AUC0–24 h Ratio KH176m/KH176,"[6]; KH176 75 mg/kg/dose BID oral, F, Day 1",0.073
same,AUC0–24 h,[6]; [11],3090 ng·h/mL
same,Cmax,[6]; [11],203 ng/mL
same,T1/2,[6]; [11],30.9 h
same,AUC0–24 h Ratio KH176m/KH176,"[6]; KH176 75 mg/kg/dose BID oral, F, Day 28",0.067
same,AUC0–24 h,[6]; [12],5120 ng·h/mL
same,Cmax,[6]; [12],305 ng/mL
same,T1/2,[6]; [12],12.9 h
same,AUC0–24 h Ratio KH176m/KH176,"[6]; KH176 75 mg/kg/dose BID oral, M, Day 1",0.080
same,AUC0–24 h,[6]; [13],2640 ng·h/mL
same,Cmax,[6]; [13],187 ng/mL
same,T1/2,[6]; [13],3.5 h
same,AUC0–24 h Ratio KH176m/KH176,"[6]; KH176 75 mg/kg/dose BID oral, M, Day 28",0.067
same,AUC0–24 h,[6]; [14],3100 ng·h/mL
same,Cmax,[6]; [14],265 ng/mL
same,AUC0–24 h Ratio KH176m/KH176,"[6]; KH176 250 mg/kg/dose BID oral, F, Day 1",0.073
same,AUC0–24 h,[6]; [15],7630 ng·h/mL
same,Cmax,[6]; [15],415 ng/mL
same,AUC0–24 h Ratio KH176m/KH176,"[6]; KH176 250 mg/kg/dose BID oral, F, Day 28",0.071
same,AUC0–24 h,[6]; [16],17300 ng·h/mL
same,Cmax,[6]; [16],913 ng/mL
same,AUC0–24 h Ratio KH176m/KH176,"[6]; KH176 250 mg/kg/dose BID oral, M, Day 1",0.055
same,AUC0–24 h,[6]; [17],5170 ng·h/mL
same,Cmax,[6]; [17],312 ng/mL
same,T1/2,[6]; [17],104.4 h
same,AUC0–24 h Ratio KH176m/KH176,"[6]; KH176 250 mg/kg/dose BID oral, M, Day 28",0.066
same,AUC0–24 h,[6]; [18],10400 ng·h/mL
same,Cmax,[6]; [18],777 ng/mL
same,T1/2,[6]; [18],6.5 h
